Assay [1] deals with cTnI-G203S mutant myocytes. In words: Flavoprotein oxidation response to BayK(−), cTnI-G203S myocytes (Example 10). Type of assay: cell-based, mouse. As to conditions: 0.5 μM peptide, 10 μM BayK(−), FIG. 10D. How it is done: (§1) In this experiment wt myocytes were pre-exposed to 0.1, 0.5 or 1 μM for 20 min and assessed changes in flavoprotein oxidation and ψm.
Measurement of mitochondrial flavoprotein oxidation: Flavoprotein autofluorescence was used to measure flavoprotein oxidation based on previously described methods (Yaniv Y, Juhaszova M, Lyashkov A E, Spurgeon H A, Sollott S J, Lakatta E G. Ca2+-regulated-cAMP/PKA signaling in cardiac pacemaker cells links ATP supply to demand. J Mol Cell Cardiol. 2011; 51(5):740-8). […] Fluorescent images were acquired at 1 min intervals with 200 ms exposure. Metamorph 6.3 (Version 7.10.3) was used to quantify the signal by manually tracing myocytes. […] Fluorescence values recorded over 5 min before and 5 min after addition of drugs were averaged and alterations in fluorescent ratios reported as the percentage increase from the basal average. FCCP (50 μM) and NaCN (40 mM) was added at the end of each experiment to achieve a respective maximal and minimal fluorescence value indicative of maximal and minimal flavoprotein oxidation.
The ICA-L agonist BayK(−) was used to activate the channel and assess mitochondrial function. […] FIG. 10 presents the mean+/−SEM of flavoprotein fluorescence from cTnI.2 wt and cTnI-G2035 mutant myocytes before and after exposure to 10 μM BayK(−) in the presence of 1 μM AID(S)-TAT, and increasing concentrations of variant peptides as indicated. […]

In assay [2] the test system is cTnI.2 wt myocytes. Description: Mitochondrial membrane potential (JC-1) response to BayK(−), wt myocytes (Example 10). It counts as cell-based, mouse. As to conditions: 0.5 μM peptide, calcium-free, FIG. 11A. The procedure: as §1
Measurement of mitochondrial membrane potential: The fluorescent indicator 5,5′,6,6′-tetrachloro1,1′,3,3′-tetraethylbenzimidazolylcarbocyanine iodide (JC-1) was used to measure mitochondrial membrane potential (ψm) as previously described (Viola H M, Arthur P G, Hool L C. Transient exposure to hydrogen peroxide causes an increase in mitochondria-derived superoxide as a result of sustained alteration in L-type Ca2+ channel function in the absence of apoptosis in ventricular myocytes. Circ Res. 2007; 100(7):1036-44). […] Images were acquired at 2 min intervals with 50 ms exposure. Metamorph 6.3 (Version 7.10.3) was used to quantify the signal by manually tracing myocytes. An equivalent region not containing cells was used as background and was subtracted. The 580 nm/535 nm ratiometric fluorescence values recorded over 6 min before and 4 min after addition of drugs were averaged and alterations in fluorescent ratios reported as the percentage increase from the basal average. […] In addition, individual 580 and 535 signals were assessed in each experiment to determine whether the fluorescent indicator was accurately measuring ψm. […]
Based on results obtained from in vitro assessment of flavoprotein oxidation, the effect of 0.5 μM AID-TAT variants on changes in mitochondrial membrane potential (ψm) was further explored. Experiments were performed using JC-1 fluorescence under calcium-free conditions as previously described (Viola H, Johnstone V, Cserne Szappanos H, Richman T, Tsoutsman T, Filipovska A, et al. The L-type Ca(2+) channel facilitates abnormal metabolic activity in the cTnI-G2035 mouse model of hypertrophic cardiomyopathy. J Physiol. 2016; 594(14):4051-70; Viola H M, Shah A A, Johnstone V P A, Cserne Szappanos H, Hodson M P, Hool L C. Characterization and validation of a preventative therapy for hypertrophic cardiomyopathy in a murine model of the disease. Proc Natl Acad Sci U S A. 2020; 117(37):23113-24). […]

Assay [3] deals with cTnI-G203S mutant myocytes. In words: Mitochondrial membrane potential (JC-1) response to BayK(−), cTnI-G203S myocytes (Example 10). It counts as cell-based, mouse. As to conditions: for BayK(−) induced increase in ψm (JC-1 fluorescence): 0.5 μM peptide, calcium-free, FIG. 11B. The procedure:
as §1
Measurement of mitochondrial membrane potential: The fluorescent indicator 5,5′,6,6′-tetrachloro1,1′,3,3′-tetraethylbenzimidazolylcarbocyanine iodide (JC-1) was used to measure mitochondrial membrane potential (ψm) as previously described (Viola H M, Arthur P G, Hool L C. Transient exposure to hydrogen peroxide causes an increase in mitochondria-derived superoxide as a result of sustained alteration in L-type Ca2+ channel function in the absence of apoptosis in ventricular myocytes. Circ Res. 2007; 100(7):1036-44). […] Images were acquired at 2 min intervals with 50 ms exposure. Metamorph 6.3 (Version 7.10.3) was used to quantify the signal by manually tracing myocytes. An equivalent region not containing cells was used as background and was subtracted. The 580 nm/535 nm ratiometric fluorescence values recorded over 6 min before and 4 min after addition of drugs were averaged and alterations in fluorescent ratios reported as the percentage increase from the basal average. To confirm that the signal was indicative of ψm, 40 mM NaCN was added at the end of each experiment to collapse ψm. In addition, individual 580 and 535 signals were assessed in each experiment to determine whether the fluorescent indicator was accurately measuring ψm. For calcium-free experiments, cells were exposed to calcium-free HBS (supplemented with 3 mM EGTA and 200 nM JC-1) for at least 3 h prior to measuring changes in ψm.
Based on results obtained from in vitro assessment of flavoprotein oxidation, the effect of 0.5 μM AID-TAT variants on changes in mitochondrial membrane potential (ψm) was further explored. Experiments were performed using JC-1 fluorescence under calcium-free conditions as previously described (Viola H, Johnstone V, Cserne Szappanos H, Richman T, Tsoutsman T, Filipovska A, et al. The L-type Ca(2+) channel facilitates abnormal metabolic activity in the cTnI-G2035 mouse model of hypertrophic cardiomyopathy. J Physiol. 2016; 594(14):4051-70; Viola H M, Shah A A, Johnstone V P A, Cserne Szappanos H, Hodson M P, Hool L C. Characterization and validation of a preventative therapy for hypertrophic cardiomyopathy in a murine model of the disease. Proc Natl Acad Sci U S A. 2020; 117(37):23113-24). […] FIG. 11 presents the mean+/−SE of JC-1 fluorescence from cTnI.2 wt and cTnI-G203S mutant myocytes before and after exposure to 10 μM BayK(−) in the presence of 1 μM AID(S)-TAT, and 0.5 μM of variant peptides as indicated. N=no. of animals, n=no. of cardiomyocytes. P values shown compared with AID(S)-TAT as determined by the Kruskal-Wallis test.

Assay [4] relates to cTnI-G203S mice. Description: Echocardiography of pre-cardiomyopathic cTnI-G203S mice (Example 15). It counts as in vivo, mouse. As to conditions: 5 μM, 3×/wk/5 wk; versus AID(S)-TAT; FIG. 15. An excerpt: Twenty to thirty week-old male mice expressing the human cTnI gene encoding the human disease-causing cTnI-G203S were generated and used for the in vivo studies. By way of background, the mice develop hallmark features of HCM between 20 and 25 weeks (Viola H, Johnstone V, Cserne Szappanos H, Richman T, Tsoutsman T, Filipovska A, et al. The L-type Ca(2+) channel facilitates abnormal metabolic activity in the cTnI-G2035 mouse model of hypertrophic cardiomyopathy. J Physiol. 2016; 594(14):4051-70; Viola H M, Shah A A, Johnstone V P A, Cserne Szappanos H, Hodson M P, Hool L C. Characterization and validation of a preventative therapy for hypertrophic cardiomyopathy in a murine model of the disease. Proc Nati Aced Sci U S A. 2020; 117(37):23113-24; Tsoutsman T, Chung J, Doolan A, Nguyen L, Williams IA, Tu E, et al. Molecular insights from a novel cardiac troponin I mouse model of familial hypertrophic cardiomyopathy. J Mol Cell Cardiol. 2006; 41(4):623-32). Age-matched male mice expressing the normal human troponin I gene were used as controls and indicated as wild-type (wt). For in vivo studies, 20-week old cTnI-G203S mice were treated with 10 μM AID(S)-TAT (2 mg/kg) or 5 μM AID-TAT mutant peptides via intraperitoneal injection, 3 times per week for a total duration of 5 weeks. The peptide was dissolved in phosphate buffered saline solution (PBS), and the total amount of the 10 μM AID-TAT mutant peptides administered over 5 weeks was 0.9 mg. The total amount of the 5 μM AID-TAT mutant peptides administered over 5 weeks was 0.45 mg Male mice were utilized to eliminate potential differences in responses due to gender. The number of mice used is indicated by N.
Echocardiographic studies to measure left ventricular function were performed on mice under light methoxyflurane anaesthesia with the use of an i13L probe on a Vivid™ 7 IQ ultrasound system (GE Healthcare, Little Chalfont, UK) as previously described (Viola H, Johnstone V, Cserne Szappanos H, Richman T, Tsoutsman T, Filipovska A, et al. The L-type Ca(2+) channel facilitates abnormal metabolic activity in the cTnI-G2035 mouse model of hypertrophic cardiomyopathy. J Physiol. 2016; 594(14):4051-70; Viola H M, Shah A A, Johnstone V P A, Cserne Szappanos H, Hodson M P, Hool L C. Characterization and validation of a preventative therapy for hypertrophic cardiomyopathy in a murine model of the disease. Proc Natl Acad Sci U S A. 2020; 117(37):23113-24; Viola H M, Johnstone V P A, Cserne Szappanos H, Richman T R, Tsoutsman T, Filipovska A, et al. The Role of the L-Type Ca(2+) Channel in Altered Metabolic Activity in a Murine Model of Hypertrophic Cardiomyopathy. JACC Basic Transl Sci. 2016; 1(1-2):61-72). Each N represents the average of quantitative measurements from wt or cTnI-G203S mice for each treatment group.

The test system of assay [5] is cTnI-G203S mice. In words: Heart weight to body weight ratio of treated cTnI-G203S mice. Type of assay: in vivo, mouse. As to conditions: 5 μM, 3×/wk/5 wk; compared with cTnI-G203S AID(S)-TAT; FIG. 16. The procedure: The effect of treatment of the mice with peptides on the development of hypertrophy assessed as changes in heart weight to body weight ratio was also examined. […] FIG. 16 presents the mean±SEM of heart weight to body weight ratio measurements from wt and cTnI-G203S mice treated with 10 μM AID(S)-TAT, 10 μM AID-TAT, 5 μM AIDP7-TAT, 5 μM AIDP14-TAT, 5 μM AIDP15-TAT or 5 μM AIDP16-TAT. n=number of mice as indicated. *P<0.05, **P<0.01 compared with cTnI-G203S AID(S)-TAT as determined by Kruskal-Wallis tests.

In assay [6] the test system is cTnI.2 wt myocytes. Description: Flavoprotein oxidation response to BayK(−), wt myocytes (Example 10). As to conditions: 1 μM peptide 20 min, 10 μM BayK(−), FIG. 10A. Type of assay: cell-based, mouse. The procedure: as §1
Measurement of mitochondrial flavoprotein oxidation: Flavoprotein autofluorescence was used to measure flavoprotein oxidation based on previously described methods (Yaniv Y, Juhaszova M, Lyashkov A E, Spurgeon H A, Sollott S J, Lakatta E G. Ca2+-regulated-cAMP/PKA signaling in cardiac pacemaker cells links ATP supply to demand. J Mol Cell Cardiol. 2011; 51(5):740-8). […] Fluorescent images were acquired at 1 min intervals with 200 ms exposure. Metamorph 6.3 (Version 7.10.3) was used to quantify the signal by manually tracing myocytes. An equivalent region not containing cells was used as background and was subtracted. Fluorescence values recorded over 5 min before and 5 min after addition of drugs were averaged and alterations in fluorescent ratios reported as the percentage increase from the basal average. FCCP (50 μM) and NaCN (40 mM) was added at the end of each experiment to achieve a respective maximal and minimal fluorescence value indicative of maximal and minimal flavoprotein oxidation.
The ICA-L agonist BayK(−) was used to activate the channel and assess mitochondrial function. […] FIG. 10 presents the mean+/−SEM of flavoprotein fluorescence from cTnI.2 wt and cTnI-G2035 mutant myocytes before and after exposure to 10 μM BayK(−) in the presence of 1 μM AID(S)-TAT, and increasing concentrations of variant peptides as indicated. N=no. of animals, n=no. of cardiomyocytes. P values shown compared with AID(S)-TAT as determined by the Kruskal-Wallis test.

With “AIDP14-TAT: QQEEEDLKGYLDWITQAE with TAT sequence”, the “BayK(−) induced increase in flavoprotein oxidation” value in assay [1] is recorded as “significantly attenuated increases in flavoprotein oxidation resulting from BayK(−) exposure”. Besides, the “BayK(−) induced increase in ψm (JC-1 fluorescence)” value (shortened to “BayK(−) induced increase in ψm”) in assay [2] is recorded as “significantly attenuated the response”. Also, the “BayK(−) induced increase in ψm” value in assay [3] was “significantly attenuated the response”. The “normalising mitochondrial metabolic activity (in vitro, overall)” value in assay [3] (flavoprotein oxidation and JC-1 data together) is on record as “most effective in normalising mitochondrial metabolic activity”. Besides, in assay [4], the “EF, ejection fraction” value was “effectively restored”; the “FS, fractional shortening” value is recorded as “effectively restored”; the “IVSd, intraventricular septum in diastole” value is “effectively restored”; the “IVSs, intraventricular septum in systole” value is recorded as “effectively restored”. In assay [4], the “LVEDd, left ventricular end diameter during diastole” value is on record as “trend toward increased LVEDd”; the “LVEDs, left ventricular end diameter during systole” value is listed as “effectively restored”; the “LVPWd, left ventricular posterior wall in diastole” value is on record as “effectively restored”; the “LVPWs, left ventricular posterior wall in systole” value is recorded as “effectively restored”. In addition, the “heart weight to body weight ratio” value in assay [5] is “significantly decreased heart weight/body weight”.

In the case of “AIDP15-TAT: QQEEEDEKGYLDWITQAE with TAT sequence”, the “BayK(−) induced increase in flavoprotein oxidation” value in assay [6] is given as “just as effective at attenuating the response in wt myocytes as the original AID-TAT”. In addition, the “BayK(−) induced increase in ψm” value in assay [2] is “significantly attenuated the response”. Further, the “BayK(−) induced increase in ψm” value in assay [3] was “significantly attenuated the response”. For the same substance, in assay [4], the “EF, ejection fraction” value was “effectively restored”; the “FS, fractional shortening” value is “effectively restored”; the “IVSd, intraventricular septum in diastole” value is recorded as “effectively restored”; the “IVSs, intraventricular septum in systole” value is reported as “effectively restored”. Moreover, the “LVPWs, left ventricular posterior wall in systole” value in assay [4] was “effectively restored”.

Values taken from patent publication US20240158447A1, “PEPTIDES FOR USE IN THE TREATMENT OR PREVENTION OF MYOCARDIAL DAMAGE” (THE UNIVERSITY OF WESTERN AUSTRALIA, priority 2020, published 2024).
